Measurements taken from ChEMBL document CHEMBL1201862, “PubChem BioAssay data set” (2004).
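Assay format: 96-well plates, 48-hour exposure. GI50 marks 50% less growth.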 Activity calls are given as the source filed them. No stated cut-off is given here; in the data, active = GI50 up to about 1.1 µM and inactive = higher.

Assays:
Test in all cases: inhibition of tumour cell growth, NCI panel, 48 h
[1] = test system: BT-549
[2] = test system: MCF7
[3] = test system: OVCAR-8
[4] = test system: SK-MEL-5
[5] = test system: LOX IMVI
[6] = test system: HOP-92
[7] = test system: NCI-H460
[8] = test system: SK-MEL-2
[9] = test system: HCT-116
[10] = test system: TK-10
[11] = test system: MDA-MB-435
[12] = test system: OVCAR-5
[13] = test system: T47D
[14] = test system: SK-OV-3
[15] = test system: MDA-N
[16] = test system: ACHN
[17] = test system: SK-MEL-28
[18] = test system: CCRF-CEM
[19] = test system: A498
[20] = test system: SR

Measured: GI50

Cn1c2ccccc2c(=NNc2cccc(C(=O)O)c2)c2ccccc21
inactive: [1] 7.59 µM | [2] 3.4 µM | [3] 5.77 µM | [4] 14.7 µM | [5] 5.05 µM | [6] 14.8 µM | [7] 4.86 µM | [8] 16.8 µM | [9] 4.89 µM | [10] 15.5 µM | [11] 13.3 µM | [12] 14.4 µM | [13] 5.79 µM | [14] 14.8 µM | [15] 16.1 µM | [16] 5.85 µM | [17] 19.2 µM | [18] 6.41 µM

CCOc1ccc2c(c1)/C(=C(\C(Cl)=C(Cl)Cl)[N+](=O)[O-])N2
inactive: [1] 28.2 µM | [2] > 100 µM | [3] > 100 µM | [7] > 100 µM | [8] > 100 µM | [9] > 100 µM | [19] > 100 µM | [11] > 100 µM | [12] > 100 µM | [13] 48.9 µM | [14] > 100 µM | [15] > 100 µM | [16] > 100 µM | [17] > 100 µM | [18] 47.9 µM

Cc1ccc2nc(-c3ccccc3)cc(=O)n2c1
inactive: [1] > 100 µM | [2] > 100 µM | [3] > 100 µM | [4] > 100 µM | [6] > 100 µM | [7] > 100 µM | [9] > 100 µM | [10] > 100 µM | [11] > 100 µM | [12] > 100 µM | [20] > 100 µM | [13] 38.6 µM | [14] > 100 µM | [15] > 100 µM | [16] > 100 µM | [17] > 100 µM | [18] > 100 µM

COc1ccc(CN2C[C@H]3[C@@H](CC(=O)O[C@H]3C)CC2=O)cc1
inactive: [1] > 100 µM | [2] > 100 µM | [3] > 100 µM | [4] > 100 µM | [6] > 100 µM | [7] > 100 µM | [8] > 100 µM | [9] > 100 µM | [19] > 100 µM | [11] > 100 µM | [12] > 100 µM | [20] > 100 µM | [14] > 100 µM | [15] > 100 µM | [16] > 100 µM | [17] > 100 µM | [18] > 100 µM

CC(=O)O[C@H](C[C@@H](C)[C@H]1C(=O)[C@H](O)[C@@]2(C)C3CC[C@H]4C(C)(C)[C@@H](OC5OCC(O)C(O)C5O)CC[C@@]45C[C@@]35CC[C@]12C)[C@@H]1OC1(C)C (some centres not stated)
inactive: [1] 21.9 µM | [2] 17.9 µM | [3] 20.2 µM | [4] 16.1 µM | [5] 30.3 µM | [6] 16.9 µM | [7] 16.9 µM | [8] 16 µM | [9] 18.1 µM | [10] 16.3 µM | [19] 15.9 µM | [11] 17.7 µM | [12] 16.9 µM | [13] 17.4 µM | [14] 12.7 µM | [15] 19.3 µM | [16] 14 µM | [17] 20.3 µM | [18] 1.93 µM

Cc1ccc(S(=O)(=O)NC(=O)N[C@@H](Cc2c[nH]cn2)C(=O)O)cc1
inactive: [1] > 100 µM | [2] > 100 µM | [3] > 100 µM | [4] > 100 µM | [5] > 100 µM | [6] > 100 µM | [7] > 100 µM | [8] > 100 µM | [9] > 100 µM | [10] > 100 µM | [12] > 100 µM | [13] > 100 µM | [14] > 100 µM | [15] > 100 µM | [16] > 100 µM | [17] > 100 µM | [18] > 100 µM

Cc1ccc(S(=O)(=O)Nn2c(-c3ccccc3)c(C#N)c(-c3ccc([N+](=O)[O-])cc3)c(C#N)c2=O)cc1
inactive: [1] > 100 µM | [2] 61.2 µM | [3] > 100 µM | [4] 97.1 µM | [5] > 100 µM | [6] 30.1 µM | [7] > 100 µM | [8] > 100 µM | [9] > 100 µM | [10] > 100 µM | [19] > 100 µM | [11] > 100 µM | [12] > 100 µM | [14] > 100 µM | [15] > 100 µM | [16] > 100 µM | [17] > 100 µM | [18] 32.1 µM

O=S(=O)(/N=C1/S/C(=N\c2ccccc2)N(c2ccccc2)/C1=N/S(=O)(=O)c1ccccc1)c1ccccc1
inactive: [1] 24.1 µM | [2] 20.5 µM | [3] 22.8 µM | [4] 16.3 µM | [6] 13.6 µM | [7] 21.3 µM | [8] 15.2 µM | [9] 17.6 µM | [10] 30.4 µM | [19] 11.4 µM | [12] 20.8 µM | [20] 18.1 µM | [15] 16.6 µM | [16] 19.5 µM | [17] 16.6 µM | [18] 28.7 µM
